The test system of one series is Homo sapiens. The series is described as follows: Mean steady-state pharmacokinetic parammeters for Testosterone evaluated on day 30 following multiple topical administration of Testosterone gel to adult male subjetcs with testosterone levels <= 300ng/dL. Also on record: dose 100 mg, dose 50 mg, route topical. To be noted: in vivo, topical_or_ocular, dosed compound id 32, dosed compound name TESTOSTERONE, gender male, regimen Once daily, tissue Serum; for Cavg: route topical. It counts as ADME, organism-based.

Series [1] in a line: Evaluation of excretion and half-life for Testosterone following intramusculary administration of testosterone doses. Conditions: human, in vivo, im; dosed compound id 32, dosed compound name TESTOSTERONE, gender male, tissue Plasma. It counts as ADME, organism-based.

“And” between values parts separate entries of the source, which are not always exact repeats. Equal values may be shown once.

Usually Cmax stands for the peak of the concentration-time curve. Broadly, the half-life is how long it takes for the measured level to halve. A high value points to slow decline. Take `C[C@]12CC[C@H]3[C@@H](CCC4=CC(=O)CC[C@@]43C)[C@@H]1CC[C@@H]2O` [TESTOSTERONE]: the results for the Cavg in the series with Homo sapiens (dose 50 mg) and with Homo sapiens (dose 100 mg) were 365 ng/dL and 612 ng/dL, respectively. Also, the Cmax in the series with Homo sapiens was 538 ng/dL and 897 ng/dL. For the same compound, the half-life in series [1] lay within 10 to 100 min.

The values above are taken from ChEMBL document CHEMBL3832021, “DailyMed|setid=e42c6a90-37f6-44f5-8112-126c2c4a4b2c | TESTIM- testosterone gel | A-S Medication Solutions LLC”.
